Assay results as given in patent US7351408B2 (priority 1997, dated 2008).

Key:
Assay type in all cases: cell-based, human
[1] = tested on: Jurkat cells
[2] = tested on: HL-60 cells
[3] = tested on: HeLa cells
[4] = tested on: Jurkat cells; experiment: Normal sialic acid released by sialidase digestion, quantified by HPAEC
Description: We therefore evaluated the effects of ManLev treatment on the amount of normal sialic acid on Jurkat cells, expecting a reduction.

[5] = tested on: Jurkat cells; experiment: Cell morphology and rate of cell growth during prolonged treatment; conditions: up to 6 weeks
Description: We have also determined the quantitative and physiological limits to the cell surface expression of reactive functional groups. […] At saturation, we calculated the number of ketones accessible to chemoselective ligation and flow cytometry analysis to be approximately 1.8×10^6 per cell (32). No effects on cell morphology or the rate of cell growth were observed during prolonged (up to 6 weeks) treatment with ManLev.

| Compound | increase in fluorescence above the background level (ketone expression) [1] | increase in fluorescence above the background level (ketone expression) [2] | increase in fluorescence above the background level (ketone expression) [3] | amount of sialic acid released by sialidase digestion, lower than that from ManNAc-treated cells [4] | dose dependence of ketone expression [1] | number of ketones accessible to chemoselective ligation and flow cytometry analysis [1] | effects on cell morphology or the rate of cell growth [5] | effect on ketone expression resulting from ManLev treatment [1] | effect on ketone expression resulting from ManLev treatment [2] | effect on ketone expression resulting from ManLev treatment [3] |
| --- | --- | --- | --- | --- | --- | --- | --- | --- | --- | --- |
| CC(=O)CCC(=O)N[C@H]1C(O)O[C@H](CO)[C@@H](O)[C@@H]1O (stereo partly drawn) [GlcLev, N-levulinoyl glucosamine] | only background fluorescence | – | – | – | – | – | – | – | – | – |
| CC(=O)CCC(=O)N[C@@H]1C(O)O[C@H](CO)[C@@H](O)[C@@H]1O (stereo partly drawn) [ManLev, N-levulinoyl mannosamine] | ≤ 30 fold | ≤ 30 fold | ≤ 30 fold | approximately 10 fold | dose dependent and saturable | approximately 1.8×10^6 per cell | No effects | – | – | – |
| CC(=O)N[C@@H]1C(O)O[C@H](CO)[C@@H](O)[C@@H]1O (stereo partly drawn) [ManNAc, N-Acetylmannosamine, reference compound] | only a background level of fluorescence | only a background level of fluorescence | only a background level of fluorescence | – | – | – | – | inhibited | – | – |
| tunicamycin | – | – | – | – | – | – | – | inhibited by tunicamycin in a dose-dependent fashion | unaffected | unaffected |
